The term IC50 denotes the concentration needed to halve the response being measured.

The target of this experiment is T1, rat spleen 20S immunoproteasome (Rattus norvegicus, UniProt P28064+P28077).
T1 construct: rat spleen 20S immunoproteasome (Boston Biochem, 0.25 nM final); purchased Boston Biochem; host or cells: rat spleen (tissue-derived 20S immunoproteasome)
Briefly: Rat 20S (PA28 activation) β1i and β5i Proteasome Assays (result stated for one or both). As to conditions: human PA28 activator, Ac-PAL-AMC (β1i) or Ac-ANW-AMC (β5i) substrate, not stated which of the two assays. The format is biochemical. As for the experimental part: Rat 20S (PA28 activation) β1i Proteasome Assay
(§1) To 1 µL of test compound dissolved in DMSO in a 384-well black microtiter plate is added 25 µL of assay buffer at 37 °C containing human PA28 activator (Boston Biochem, 12 nM final) with Ac-PAL-AMC (•1i selective substrate) (40 µM final), followed by 25 µL of assay buffer at 37 °C containing rat spleen 20S immunoproteasome (Boston Biochem, 0.25 nM final). Assay buffer is composed of 20 mM HEPES, 0.5 mM EDTA and 0.01% BSA, pH7.4. The reaction is followed on a BMG Galaxy plate reader (37 °C, excitation 380 nm, emission 460 nm, gain 20). Percent inhibition is calculated relative to 0% inhibition (DMSO) and 100% inhibition (10 µM bortezomib) controls.
Rat 20S (PA28 activation) β5i Proteasome Assay
as §1, with “Ac-ANW-AMC •5i” for “Ac-PAL-AMC (•1i”, “substrate (30” for “substrate) (40”, “final)” for “final),”, “(37°C,” for “(37 °C,”
`CC(C)C[C@H](NC(=O)C(C)(C)NC(=O)c1cnccn1)B(O)O` [Compound 28, [(1R)-3-methyl-1-({2-methyl-2-[(pyrazin-2-ylcarbonyl)amino]propanoyl}-amino)butyl]boronic acid] displayed a half-inhibitory concentration (IC50) not above 1000 nM. Then `CC(C)C[C@H](NC(=O)C1(NC(=O)c2ccccc2C(F)(F)F)CC1)B(O)O` [Compound 30, ((1R)-3-methyl-1-{[(1-{[2-(trifluoromethyl)benzoyl]amino}cyclopropyl)-carbonyl]amino)butyl)boronic acid], with not above 1000 nM; and `CC(C)C[C@H](NC(=O)C(C)(C)NC(=O)OCc1ccccc1)B(O)O` [Compound 32, ((1R)-1-[(2-([(benzyloxy)carbonyl]amino)-2-methylpropanoyl)amino]-3-methylbutyl)boronic acid], with not above 1000 nM; and `CC(C)C[C@H](NC(=O)[C@]1(NC(=O)c2cnccn2)C[C@H]1c1ccccc1)B(O)O` [Compound 3, {(1R)-3-methyl-1-[(((1S,2S)-2-phenyl-1-[(pyrazin-2-ylcarbonyl)amino]-cyclopropyl}carbonyl)amino]butyl)boronic acid], with not above 1000 nM. Then `Cc1cccc(C[C@H](NC(=O)C2(NC(=O)c3ccc(Cl)cc3)CC2)B(O)O)c1` [Compound 2, [(1R)-1-[((1-[(4-chlorobenzoyl)amino]cyclopropyl)carbonyl)amino]-2-(3-methylphenyl)ethyl]boronic acid], with not above 10000 nM; and `CC(C)C[C@H](NC(=O)C1(NC(=O)Cc2ccccc2)CC1)B(O)O` [Compound 22, {(1R)-3-methyl-1-[({1-[(phenylacetyl)amino]cyclopropyl}carbonyl)amino]-butyl}boronic acid], with not above 1000 nM. Then `CC(C)C[C@H](NC(=O)C1(NC(=O)OCc2ccccc2)CCC1)B(O)O` [Compound 18, ((1R)-1-{[(1-{[(benzyloxy)carbonyl]amino}cyclobutyl)carbonyl]amino}-3-methylbutyl)boronic acid], with not above 1000 nM; and `Cc1ccc(C[C@H](NC(=O)C2(NC(=O)c3cnccn3)CC2)B(O)O)cc1` [Compound 19, {(1R)-2-(4-methylphenyl)-1-[({1-[(pyrazin-2-ylcarbonyl)amino]cyclopropyl}-carbonyl)amino]ethyl}boronic acid], with not above 10000 nM. `CC(C)C[C@H](NC(=O)C(C)(C)NC(=O)c1ccc(Cl)cc1)B(O)O` [Compound 25, [(1R)-1-({2-[(4-chlorobenzoyl)amino]-2-methylpropanoyl]amino)-3-methylbutyl]boronic acid] came in with an IC50 not above 1000 nM. The value for `CC(C)C[C@H](NC(=O)C(C)(C)NC(=O)c1cnc2ccccc2n1)B(O)O` [Compound 21, [(1R)-3-methyl-1-({2-methyl-2-[(quinoxalin-2-ylcarbonyl)amino]propanoyl}-amino)butyl]boronic acid] was not above 1000 nM.
